Measured values from a melting point compilation (Tetko et al.; mined from patent text by program, amines drawn as free bases though some values may be those of a salt).

Compared with `CC(C)CC(=O)Nc1cccc(-c2ccnc3c(-c4ccc(CO)cc4)cnn23)c1`, `NC(=O)CCn1nccc1-c1ccc(Oc2ccc(F)cc2)cc1` is lower in melting point: 170 to 172 °C for the first, 118 to 120 °C for the second.

Compared with `OCc1ccccc1SCc1cc2c(cc1O)CCCO2`, `O=C1CCCc2cc(F)cc(Sc3ccccc3)c21` is lower in melting point: 140 to 141 °C for the first, 112 to 113 °C for the second.

First: CCC1C(=O)c2c(cc(OCC(=O)O)c(Cl)c2Cl)C1c1ccccc1 (centres undefined)
Second: COC(=O)c1nc(CI)n(-c2ccc(Cl)cc2C(=O)c2ccccc2Cl)n1
The melting point of the first is higher: 199 to 203 °C for the first, 125 to 128 °C for the second.

Compared with `COc1cc(C(=O)C=Cc2cc(O)c(O)c([N+](=O)[O-])c2)cc(OC)c1OC`, `COc1cc(/C=C/C(=O)/C=C/c2cc(OC)c(OCCO)c(OC)c2)cc(OC)c1OCCO` is lower in melting point: 213 to 216 °C for the first, 133 to 135 °C for the second.

First: O=S(=O)(CC1CC1)c1nc[nH]n1
Second: Cc1ccc(S(=O)(=O)OCC(=O)CC2CCC(C)CC2)cc1 (centres undefined)
The melting point of the first is higher: 140 to 149 °C for the first, 42 to 43.5 °C for the second.

First: O=C(Nc1ccc2c(c1)NCCC2)c1cc2cc(F)ccc2n1Cc1cccc(F)c1
Second: Cc1nc2cc(NC(=O)c3cc4cc(-c5ccccc5)ncc4n3Cc3cccc(F)c3)ccc2n1C
The melting point of the first is lower: 149 to 151 °C for the first, 288 to 290 °C for the second.

Compared with `CCCn1c(=O)n(CC(C)O)c(=O)c2[nH]c(C34CC5CC(CC3C5)C4)nc21` (centres undefined), `COC(=C1C2CC3CC(C2)CC1C3)c1cc(OC)cc(OC(=O)C(C)(C)C)c1` is lower in melting point: 195 to 197 °C for the first, 159 °C for the second.

Compared with `Cc1ccccc1C(=O)N1CCC(=O)c2cc(F)c(Cl)cc21`, `Cc1cc(SCN2C(=O)c3ccccc3C2=O)cc(C(C)(C)C)c1O` is higher in melting point: 84.9 to 88.7 °C for the first, 114 to 116 °C for the second.

Compared with `Cc1cc(SCc2ccc3cn(-c4ccc(C(F)(F)F)cc4)nc3c2)ccc1OCC(=O)O`, `N#CCCNC(=O)c1cccc(-c2cccn3cc(Cc4cccc(C(F)(F)F)c4)nc23)c1` is lower in melting point: 142 to 144 °C for the first, 126 to 127 °C for the second.

First: CCOC(=O)c1c(-c2ccc(F)cc2)c2ccsc2c(=O)n1C
Second: CCOC(=O)c1c(SC)nc(C2CC2)n1Cc1ccc(-c2ccccc2S(=O)(=O)NC#N)cc1
The melting point of the first is lower: 145 to 147 °C for the first, over 260 °C for the second.

First: Nc1ccc(S(N)(=O)=O)c2c1CCCC2
Second: O=c1c2c(nc3n1CCc1c-3[nH]c3cc(Cl)cc(Cl)c13)CCCC2
The melting point of the first is lower: 216 to 219 °C for the first, 296 to 297 °C for the second.

First: CC(C)CCn1cn[nH]c1=O
Second: Cn1nc(O)c2ccccc2c1=O
The melting point of the first is lower: 78 to 79 °C for the first, 243 to 244 °C for the second.

First: Cc1oc(-c2ccccc2)nc1CCOc1ccc(COc2ccccc2CC(=O)O)cc1
Second: CCOc1nn(Cc2ccc(OCc3cn(-c4ccccn4)nc3C)cc2)cc1CCC(=O)O
The melting point of the first is higher: 141 to 142 °C for the first, 126 to 127 °C for the second.

First: CC(C)c1nccc2c(C(C)C(=O)O)cccc12 (centres undefined)
Second: CCCCCCC(C)OS(=O)(=O)NC(=O)Nc1c(C(C)C)cccc1C(C)C (centres undefined)
The melting point of the first is higher: 138 °C for the first, 109 to 113 °C for the second.

First: CNC(=O)NC(=O)C(CC1CCCC1OC1CCCCO1)c1ccc(Cl)c(Cl)c1 (centres undefined)
Second: CN1CCCC2CCCC(N(C)C(=O)Cc3ccc(Cl)c(Cl)c3)C21 (centres undefined)
The melting point of the first is lower: 68 to 70 °C for the first, 92 °C for the second.

First: O=C(Nc1ccc2c(c1)OCO2)c1ccc([N+](=O)[O-])cc1
Second: CC1(Cl)CSC2C(NC(=O)Cc3ccccc3)C(=O)N2C1C(=O)OCc1ccc([N+](=O)[O-])cc1 (centres undefined)
The melting point of the first is higher: 231 to 234 °C for the first, 134 to 136 °C for the second.

Compared with `COC(=O)c1c(Cl)ccc2[nH]c(Sc3cccc4c(S(C)(=O)=O)c[nH]c34)nc12`, `COC(=O)CCC#Cc1cc(Cl)ccc1NS(=O)(=O)c1cccc(Cl)c1Cl` is lower in melting point: 284 to 286 °C for the first, 64 °C for the second.

First: O=C1NCC(CCc2ccccc2F)O1 (centres undefined)
Second: CNc1c(F)cccc1C(C)=O
The melting point of the first is higher: 73 to 74 °C for the first, 26 to 28 °C for the second.

First: Cn1c(=O)c(Oc2ccc(F)cc2F)cc2cnc(Cl)cc21
Second: CNc1ccc(-c2[nH]cnc2-c2cc(OC)cc(OC)c2)cc1F
The melting point of the first is lower: 168 to 170 °C for the first, 182 to 184 °C for the second.

First: Nc1cc(Cl)nc(S(=O)Cc2ccc3ccccc3c2)n1 (centres undefined)
Second: COc1cccc(C(=O)Nc2ccc3ccc(Cl)nc3n2)c1
The melting point of the first is higher: 222 to 223 °C for the first, 178 °C for the second.

First: COc1cc2c(cc1OC)=C1C(C#N)SC(=N)N1CC=2 (centres undefined)
Second: CCOc1cc2c(Nc3cc(OC)c(Cl)cc3Cl)c(C#N)cnc2cc1OCCC1CCN(C)CC1
The melting point of the first is higher: 229 to 230 °C for the first, 174 to 176 °C for the second.

Compared with `Cn1c(=O)c2c(Cl)cccc2n2cnc(C(=O)OCC3CC3)c12`, `COC(=O)c1ccccc1S(=O)(=O)NC(=O)n1nc(C)n(C2CCCC2)c1=O` is lower in melting point: 214 °C for the first, 146 °C for the second.

First: CC(C(=O)NCC(COC(=O)C(C)(C)C)Cc1ccc(C(C)(C)C)cc1)c1ccc(NS(C)(=O)=O)cc1 (centres undefined)
Second: CCCCCC(CC(=O)Nc1cc(C(=O)Nc2ccncc2)ccc1C(C)(C)C)c1c(OC)cccc1OC (centres undefined)
The melting point of the first is lower: 97 to 100 °C for the first, 169 to 172 °C for the second.

First: CCCCCc1ccc(-c2ccc(CC#N)cc2)cc1
Second: COc1ccc(-c2ccccc2NC(N)=S)cc1
The melting point of the first is lower: 80 °C for the first, 158 to 159 °C for the second.

First: O=C(N[C@H]1CCN(C(=O)c2cc(C(F)(F)F)cc(C(F)(F)F)c2)[C@H](Cc2ccc(Cl)cc2)C1)c1cc(=O)c2ccccc2o1
Second: O=C(Nc1ccc(CN2C(=O)[C@H]3CCC[C@H]3Nc3ccccc32)cc1)Oc1ccccc1 (relative stereo)
The melting point of the first is lower: 169 to 170 °C for the first, 183 to 184 °C for the second.

First: Clc1ccc(-c2nnc(Br)cc2Br)cc1
Second: Cc1cc(-c2noc(C)c2-c2ccc(S(N)(=O)=O)c(F)c2)ccc1-c1cscn1
The melting point of the first is higher: 160 to 162 °C for the first, 159 °C for the second.

Compared with `CP(C)(=O)OCc1ccccc1`, `COc1ccc(C(C)C)cc1-c1cc(-c2nnnn2CCc2ccccc2)c(O)cc1O` is higher in melting point: 41 to 45 °C for the first, 206 to 209 °C for the second.

First: COc1ccccc1NC(=O)Nc1ccc(N2CCN(C(=O)Nc3ccc(OCCO)cc3Cl)CC2)c(Cl)c1
Second: O=C(O)CCC(=O)Nc1ccc(N2CCN(c3ccncc3)CC2)cc1
The melting point of the first is lower: 173 to 175 °C for the first, 263 to 264 °C for the second.

First: Cc1cccc(C)c1CNc1cc(C(=O)N2CC2)cc2c1nc(C)n2C
Second: CCCCc1nc2cc(C)c(C)cc2n1Cc1ccc(C(=O)O)cc1
The melting point of the first is lower: 201 to 202 °C for the first, 220 °C for the second.

First: NN1C=NNC1=Cc1ccccc1O
Second: CC1OC(=Nc2nccs2)c2c1nc1ccccc1c2O (centres undefined)
The melting point of the first is lower: 210 to 212 °C for the first, over 270 °C for the second.

Compared with `COc1ccn2nc(-c3ccccc3)c(-c3ccc(=O)n(C(C)C)n3)c2c1`, `Fc1ccc(-c2nn3cccnc3c2-c2ccncc2)cc1` is higher in melting point: 180 to 182 °C for the first, 194 °C for the second.

First: Nc1cc(C(=O)CCCCCl)cc2c1OCC2
Second: COc1c(Cl)ccc(-c2cc(N)c(Cl)c(C(=O)N3CCCO3)n2)c1F
The melting point of the first is lower: 129 to 131 °C for the first, 204 to 207 °C for the second.

First: COc1ccc(C(O)(c2ccc(OC)cc2)C(O)(c2ccccc2)c2ccccc2)cc1
Second: CC(=Cc1ccc2c(c1)S(=O)(=O)c1cc(C=C(C)c3ccccc3)ccc1N2C)c1ccccc1
The melting point of the first is lower: 163 to 165 °C for the first, 190 to 193 °C for the second.

`COCCNC(=O)CN1CCN(Cc2ccc3c(c2)NC(=O)C(C)O3)CC1` (centres undefined) and `COc1ccnc(N2CCN(Cc3ccc(C(C)NC(C)=O)cc3)CC2)n1` (centres undefined) cannot be ordered by melting point: 111 to 142 °C for the first, 113 to 115 °C for the second.

Going from `CCCCNC(=O)Oc1cccc(NC(=O)CC(C)(OC)OC)c1` to `CC(=O)Oc1cccc(CCNC(=O)/C=C/c2cccnc2)c1`, the melting point falls from 114 °C to 99 °C.

First: CC(=O)N1CCC(c2cc(F)c(C(=O)O)cc2F)CC1
Second: CNCC1CN(c2c(F)cc3c(=O)c(C(=O)O)cn(-c4ccc(F)cc4F)c3c2F)CCO1 (centres undefined)
The melting point of the first is lower: 206 to 207 °C for the first, 224 to 227 °C for the second.

First: CC(C)(CC(N)=O)C(Br)(Br)Br
Second: CC(C)(C)OC(=O)[C@@H]1CCCN1C(=O)Cl
The melting point of the first is higher: 109 to 111 °C for the first, 89 to 92 °C for the second.

Compared with `Oc1c(C2=CCCCC2)ccc2ccccc12`, `Cc1ccccc1CC(=NC#N)NC(NC(=O)Cc1ccc(F)c(F)c1)C(C)(C)C` (centres undefined) is higher in melting point: 82 to 83 °C for the first, 178 to 179 °C for the second.

Compared with `COC(=O)C1CN(C(=O)c2ccccc2-n2cccn2)c2ccc(C)cc2CN1S(=O)(=O)c1ccc(OC)cc1` (centres undefined), `Cc1ccc(S(=O)(=O)OCCc2cccc3[nH]cc(S(=O)(=O)c4ccccc4)c23)cc1` is lower in melting point: 240 to 242 °C for the first, 58 to 60 °C for the second.

Going from `FC(F)(F)c1cc(Cl)c2nc(N3CCN(c4ncccc4C(F)(F)F)CC3)[nH]c2c1` to `Cc1cc(-c2cc(C(F)(F)F)[nH]n2)c(F)cc1Cl`, the melting point falls from 204 °C to 159 °C.

First: CC1(C)CCC2(CC1)CC(=O)N(CCCn1c(=O)sc3ccc(Cl)cc31)C2=O
Second: CSCCn1cc(Cl)nc(N2CCc3cc(Cl)cc(Cl)c32)c1=O
The melting point of the first is higher: 159 to 160 °C for the first, 127 to 128 °C for the second.

First: Cc1[nH]c(=O)c(C#N)cc1-c1csc(N)n1
Second: Cc1c(N(C)C)c(F)cc2c(=O)[nH]c(=O)n(C3CC3)c12
The melting point of the first is higher: 294 to 296 °C for the first, 238 to 239 °C for the second.

Compared with `C(#CCN(c1ccccc1)c1ccccc1)CN(c1ccccc1)c1ccccc1`, `Cc1ccc(-c2ccc([Si](C)(C)C)cc2)nc1` is lower in melting point: 84 to 86 °C for the first, 66.1 °C for the second.

First: C/C(=C\c1ccc(C(=O)O)cc1)c1ccc2c(c1)CC(C)(C)CC(C)(C)C2
Second: CCC1(O)CC(=O)OCc2c1cc1n(c2=O)Cc2c-1nc1ccccc1c2CC[Si](C)(C)C (centres undefined)
The melting point of the first is lower: 232 to 235 °C for the first, over 250 °C for the second.

Compared with `CC(=O)SCCC(=O)Oc1ccc([N+](=O)[O-])cc1`, `COc1cc(C)nn1-c1ccc(Br)cc1` is lower in melting point: 71 to 73 °C for the first, 67 to 68 °C for the second.

Compared with `CCn1nc2c(N)nc3c(c2c1CC1(O)CCCCC1)CCCC3`, `COCc1nc(C)c2c(n1)N(Cc1ccc(Br)cc1)C(=O)CC2` is lower in melting point: 232 to 234 °C for the first, 64 to 66 °C for the second.

First: C#Cc1nc(NOC)c2ncn([C@@H]3O[C@H](CO)[C@@H](O)[C@H]3O)c2n1
Second: CC1=CC(O)C(O)C(C)(C)CC1O (centres undefined)
The melting point of the first is higher: 165 to 167 °C for the first, 138 to 139 °C for the second.

Compared with `COCCNc1c([N+](=O)[O-])cc(C(F)(F)F)c(Cl)c1[N+](=O)[O-]`, `CCN1CCN(c2ccc(C(=O)NCCCCCCCCCCCCO[N+](=O)[O-])cn2)CC1` is lower in melting point: 106 to 108 °C for the first, 71 to 72 °C for the second.

Compared with `CCCCCCCCCc1nnc(C2=C(OC(C)=O)c3ccccc3S(=O)(=O)N2C)o1`, `CCCCNS(=O)(=O)CC(=O)[C@@H]1OC(C)(C)N(C(=O)OC(C)(C)C)[C@H]1CC1CCCCC1` is lower in melting point: 118 to 119 °C for the first, 70 to 73 °C for the second.

In the case of `O=C(NCc1cccs1)C1CC2C=CC1C2` (centres undefined), the melting point is reported as 123 to 124 °C.
